In patent publication US20250242064A1, “CXCR4-TARGETING COMPOUNDS, AND METHODS OF MAKING AND USING THE SAME” (PROVINCIAL HEALTH SERVICES AUTHORITY, priority 2022, published 2025):
Where a SMILES comes first, the peptide text is derived from it. Bridges are numbered along the chain shown (N, C = ends). [ ]: non-standard residue; d: D form. The star is where a group is joined. X3 = O=C(O)CN1CCN(CC(=O)O)CCN(CC(=O)N[C@@H](CS(=O)(=O)O)C(=O)N[C@@H](CCCCNC(=O)CCCc2ccc(Br)cc2)C(=O)*)CCN(CC(=O)O)CC1; 2Nal = N[C@@H](Cc1ccc2ccccc2c1)C(=O)O; Lys(iPr) = CC(C)NCCCC[C@H](N)C(=O)O

Assay: in vivo
Set-up: species or system mice
Conditions: male, mouse, iv, total radioactivity
Method in brief: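 Male NRG mice bearing subcutaneous Z138 mantle cell lymphoma xenografts (5×10^6 cells, grown to 200-300 mm^3) injected intravenously under isoflurane with 68Ga-labelled tracers. Harvested tissues weighed and gamma-counted; uptake expressed as % ID/g.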

[1] = NOD.Cg-Rag1tm1Mom Il2rgtm1Wjl/SzJ (NRG), Biodistribution: Adrenals
[2] = NOD.Cg-Rag1tm1Mom Il2rgtm1Wjl/SzJ (NRG), Biodistribution: Blood
[3] = NOD.Cg-Rag1tm1Mom Il2rgtm1Wjl/SzJ (NRG), Biodistribution: Bone
[4] = NOD.Cg-Rag1tm1Mom Il2rgtm1Wjl/SzJ (NRG), Biodistribution: Brain
[5] = NOD.Cg-Rag1tm1Mom Il2rgtm1Wjl/SzJ (NRG), Biodistribution: Heart
[6] = NOD.Cg-Rag1tm1Mom Il2rgtm1Wjl/SzJ (NRG), Biodistribution: Kidneys
[7] = NOD.Cg-Rag1tm1Mom Il2rgtm1Wjl/SzJ (NRG), Biodistribution: Liver
[8] = NOD.Cg-Rag1tm1Mom Il2rgtm1Wjl/SzJ (NRG), Biodistribution: Lungs
[9] = NOD.Cg-Rag1tm1Mom Il2rgtm1Wjl/SzJ (NRG), Biodistribution: Muscle
[10] = NOD.Cg-Rag1tm1Mom Il2rgtm1Wjl/SzJ (NRG), Biodistribution: Pancreas
[11] = NOD.Cg-Rag1tm1Mom Il2rgtm1Wjl/SzJ (NRG), Biodistribution: Small Intestine
[12] = NOD.Cg-Rag1tm1Mom Il2rgtm1Wjl/SzJ (NRG), Biodistribution: Spleen
[13] = NOD.Cg-Rag1tm1Mom Il2rgtm1Wjl/SzJ (NRG), Biodistribution: Stomach
[14] = NOD.Cg-Rag1tm1Mom Il2rgtm1Wjl/SzJ (NRG), Biodistribution: Testes
[15] = NOD.Cg-Rag1tm1Mom Il2rgtm1Wjl/SzJ (NRG), Biodistribution: Z138 Tumor
[16] = NOD.Cg-Rag1tm1Mom Il2rgtm1Wjl/SzJ (NRG), Ratio Tumor-to-Blood
[17] = NOD.Cg-Rag1tm1Mom Il2rgtm1Wjl/SzJ (NRG), Ratio Tumor-to-Bone
[18] = NOD.Cg-Rag1tm1Mom Il2rgtm1Wjl/SzJ (NRG), Ratio Tumor-to-Kidney
[19] = NOD.Cg-Rag1tm1Mom Il2rgtm1Wjl/SzJ (NRG), Ratio Tumor-to-Muscle
[20] = NOD.Cg-Rag1tm1Mom Il2rgtm1Wjl/SzJ (NRG), Ratio Tumor-to-Pancreas
[21] = NOD.Cg-Rag1tm1Momll2rgtm1Wjl/SzJ (NRG), Biodistribution: Blood
[22] = NOD.Cg-Rag1tm1Momll2rgtm1Wjl/SzJ (NRG), Biodistribution: Stomach
[23] = NOD.Cg-Rag1tm1Momll2rgtm1Wjl/SzJ (NRG), Biodistribution: Testes
[24] = NOD.Cg-Rag1tm1Momll2rgtm1Wjl/SzJ (NRG), Ratio Tumor-to-Bone
[25] = NOD.Cg-Rag1tm1Momll2rgtm1Wjl/SzJ (NRG), Ratio Tumor-to-Kidney
[26] = NOD.Cg-Rag1tm1Momll2rgtm1Wjl/SzJ (NRG), Ratio Tumor-to-Muscle
[27] = NOD.Cg-Rag1tm1Momll2rgtm1Wjl/SzJ (NRG), Ratio Tumor-to-Pancreas

CC(C)NCCCC[C@H](NC(=O)[C@H]1CCC(=O)N[C@@H](CCCCNC(=O)[C@H](CCCCNC(=O)CCCc2ccc(Br)cc2)NC(=O)[C@H](CS(=O)(=O)O)NC(=O)CN2CCN(CC(=O)O)CCN(CC(=O)O)CCN(CC(=O)O)CC2)C(=O)N[C@@H](Cc2ccc(O)cc2)C(=O)N[C@@H](CCCCNC(C)C)C(=O)N[C@H](CCCNC(=N)N)C(=O)N[C@@H](Cc2ccc3ccccc3c2)C(=O)N[C@H](C)C(=O)N1)C(N)=O [[^177Lu]Lu-BL34L20, metal not drawn] (K(X3)Y[Lys(iPr)][dR][2Nal][dA][dE][Lys(iPr)]-NH2; lactam N-7)
tissue uptake at 1 h [1]: 2.44 %ID/g
tissue uptake at 3 h [1]: 2.29 %ID/g
tissue uptake at 24 h [1]: 1.1 %ID/g
tissue uptake at 72 h [1]: 0.81 %ID/g
tissue uptake at 120 h [1]: 1.24 %ID/g
tissue uptake at 1 h [2]: 14.1 %ID/g
tissue uptake at 3 h [2]: 11.8 %ID/g
tissue uptake at 1 h [3]: 1.02 %ID/g
tissue uptake at 3 h [3]: 0.78 %ID/g
tissue uptake at 24 h [3]: 0.29 %ID/g
tissue uptake at 72 h [3]: 0.26 %ID/g
tissue uptake at 120 h [3]: 0.3 %ID/g
tissue uptake at 1 h [4]: 0.22 %ID/g
tissue uptake at 3 h [4]: 0.2 %ID/g
tissue uptake at 24 h [4]: 0.06 %ID/g
tissue uptake at 72 h [4]: 0.03 %ID/g
tissue uptake at 120 h [4]: 0.02 %ID/g
tissue uptake at 1 h [5]: 3.05 %ID/g
tissue uptake at 3 h [5]: 3.01 %ID/g
tissue uptake at 24 h [5]: 0.76 %ID/g
tissue uptake at 72 h [5]: 0.25 %ID/g
tissue uptake at 120 h [5]: 0.18 %ID/g
tissue uptake at 1 h [6]: 4.5 %ID/g
tissue uptake at 3 h [6]: 3.98 %ID/g
tissue uptake at 24 h [6]: 1.53 %ID/g
tissue uptake at 72 h [6]: 0.4 %ID/g
tissue uptake at 120 h [6]: 0.33 %ID/g
tissue uptake at 1 h [7]: 2.8 %ID/g
tissue uptake at 3 h [7]: 3.16 %ID/g
tissue uptake at 24 h [7]: 0.84 %ID/g
tissue uptake at 72 h [7]: 0.44 %ID/g
tissue uptake at 120 h [7]: 0.19 %ID/g
tissue uptake at 1 h [8]: 8.78 %ID/g
tissue uptake at 3 h [8]: 6.6 %ID/g
tissue uptake at 24 h [8]: 1.9 %ID/g
tissue uptake at 72 h [8]: 0.68 %ID/g
tissue uptake at 120 h [8]: 0.72 %ID/g
tissue uptake at 1 h [9]: 1.13 %ID/g
tissue uptake at 3 h [9]: 0.93 %ID/g
tissue uptake at 24 h [9]: 0.27 %ID/g
tissue uptake at 72 h [9]: 0.15 %ID/g
tissue uptake at 120 h [9]: 0.08 %ID/g
tissue uptake at 1 h [10]: 1.59 %ID/g
tissue uptake at 3 h [10]: 1.25 %ID/g
tissue uptake at 24 h [10]: 1.38 %ID/g
tissue uptake at 72 h [10]: 0.12 %ID/g
tissue uptake at 120 h [10]: 0.23 %ID/g
tissue uptake at 1 h [11]: 1.16 %ID/g
tissue uptake at 3 h [11]: 1.02 %ID/g
tissue uptake at 24 h [11]: 0.53 %ID/g
tissue uptake at 72 h [11]: 0.11 %ID/g
tissue uptake at 120 h [11]: 0.08 %ID/g
tissue uptake at 1 h [12]: 1.92 %ID/g
tissue uptake at 3 h [12]: 1.86 %ID/g
tissue uptake at 24 h [12]: 1.12 %ID/g
tissue uptake at 72 h [12]: 0.95 %ID/g
tissue uptake at 120 h [12]: 0.77 %ID/g
tissue uptake at 1 h [13]: 0.52 %ID/g
tissue uptake at 3 h [13]: 0.71 %ID/g
tissue uptake at 1 h [14]: 1.78 %ID/g
tissue uptake at 3 h [14]: 2.81 %ID/g
tissue uptake at 1 h [15]: 5.94 %ID/g
tissue uptake at 3 h [15]: 15.4 %ID/g
tissue uptake at 24 h [15]: 27.4 %ID/g
tissue uptake at 72 h [15]: 23.6 %ID/g
tissue uptake at 120 h [15]: 23.6 %ID/g
tissue to tissue ratio at 1 h [16]: 0.42
tissue to tissue ratio at 3 h [16]: 1.3
tissue to tissue ratio at 24 h [16]: 9.65
tissue to tissue ratio at 72 h [16]: 53.9
tissue to tissue ratio at 120 h [16]: 71.5
tissue to tissue ratio at 1 h [17]: 3.63
tissue to tissue ratio at 3 h [17]: 10.5
tissue to tissue ratio at 1 h [18]: 1.32
tissue to tissue ratio at 3 h [18]: 3.93
tissue to tissue ratio at 1 h [19]: 5.29
tissue to tissue ratio at 3 h [19]: 16.7
tissue to tissue ratio at 72 h [19]: 234
tissue to tissue ratio at 1 h [20]: 3.77
tissue to tissue ratio at 3 h [20]: 12.6
tissue uptake at 24 h [21]: 2.84 %ID/g
tissue uptake at 72 h [21]: 0.45 %ID/g
tissue uptake at 120 h [21]: 0.36 %ID/g
tissue uptake at 24 h [22]: 0.41 %ID/g
tissue uptake at 72 h [22]: 0.13 %ID/g
tissue uptake at 120 h [22]: 0.07 %ID/g
tissue uptake at 24 h [23]: 1.01 %ID/g
tissue uptake at 72 h [23]: 0.65 %ID/g
tissue uptake at 120 h [23]: 0.56 %ID/g
tissue to tissue ratio at 24 h [24]: 45.3
tissue to tissue ratio at 72 h [24]: 44.3
tissue to tissue ratio at 120 h [24]: 27
tissue to tissue ratio at 24 h [25]: 18
tissue to tissue ratio at 72 h [25]: 60.3
tissue to tissue ratio at 120 h [25]: 75.5
tissue to tissue ratio at 24 h [26]: 102
tissue to tissue ratio at 120 h [26]: 357
tissue to tissue ratio at 24 h [27]: 70.9
tissue to tissue ratio at 72 h [27]: 206
tissue to tissue ratio at 120 h [27]: 257
